# “Also recorded” adds a separate entry of the source.
# Legend:
# Arabidopsis seedlings [1] = experiment: Arabidopsis hypocotyl elongation assay; assay type: in vivo; conditions: 1.0 μM
# Protocol: Sterilized Arabidopsis seeds were sown on half strength MS (with 0.5% sucrose+1% agar, 0.5 g L-1 MES, pH 5.7) plates supplemented with MPs or GR24 (at 1.0 μM). Plates were stored at 4° C. in darkness for 3 days. To initiate germination, plates were exposed to continuous white light for 24 h then transferred to continuous monochromatic red light (160 Lux, 22° C.) conditions for another 4 days. For hypocotyl length measurement, at least 30 seedlings were measured using the publically available ImageJ software (http://rsbweb.nih.gov/ij/) after taking digital photographs. Monochromatic red light source was applied as described previously (Wu and Yang, 2010). Light flow rates were measured using a Li250 quantum photometer (Li-Cor, Lincoln, NE, USA).
# [2] = Chemical stability of MPs in aqueous solution, monitored by HPLC; assay type: physicochemical; conditions: aqueous solution pH 6.8, 21° C., monitored at 24 h intervals up to 3 weeks
# Protocol: Aqueous solutions of MPs (50 μg ml-1; pH 6.8) were incubated at 21° C. in amber HPLC vials. For sample preparation, 50 μl of an acetone solution (1 mg ml-1) was diluted to the final concentration with methanol (425 μl), water (500 μl) and 25 μl of 1-Indanol (1.0 mg ml-1 solution in acetone) as internal standard. […] The column was operated at 35° C. with a flow rate of 0.25 ml per min. Compounds eluted from the column were detected with a Diode array detector. Relative quantity of remaining (non-degraded) product was determined by comparison to the internal standard.
# S. hermonthica = conditions: in vivo; cited from earlier work
# Arabidopsis seedlings [3] = experiment: Arabidopsis lateral root density and primary root length; assay type: in vivo; conditions: 1.0 μM, 8 days old seedlings
# Protocol: Sterilized Arabidopsis seeds were sown on half strength MS (with 0.5% sucrose+1% agar, 0.5 g L^−1 MES, pH 5.7) plates supplemented with GR24 or MPs (at 1.0 μM). Plates were stored at 4° C. in darkness for 3 days and then vertically grown at 22° C. in Percival incubator under long day condition (16 h at 22° C./8 h at 16° C. day/night, 60% relative humidity, 4000-5000 LUX white light) for 8 days. For determining the effect on lateral root density and primary root length, at least 30 seedlings were measured using publically available ImageJ software (http://rsbweb.nih.gov/ij/) after scanning roots.
# P. ramosa seeds = experiment: P. ramosa seed germination bioassay; assay type: in vivo; conditions: 1.0 μM
# Protocol: (§1) Parasitic weed seeds (S. hermonthica and P. ramosa) germination activity was recorded as described previously (Jamil et al., 2012). Six pre-conditioned seed discs were placed in a 90 mm petri-dish containing a filter paper ring wetted with 0.9 ml sterile MilliQ water. […] GR24 solutions with equal concentrations and sterile MilliQ water were included as a positive and negative control, respectively. After application, seeds were incubated at 30° C./25° C. in the dark for two days. Germination (seeds with radical emerging through seed coat) was scored under a binocular microscope, and germination rate (%) was calculated.
# S. hermonthica seeds = experiment: Striga hermonthica seed germination bioassay; assay type: in vivo; conditions: comparison between compounds
# Protocol: as §1, with “calculated. Statistical analyses were carried out using statistical software package R (version 3.2.2). Dose-response curves and Half Maximum Effective Concentrations (EC50) were calculated to determine optimum amount of MPs. Synthetic strigolactone analog GR24 was used as reference to estimate efficacy of selected compounds. EC50 and estimated response were calculated using drc package (https://cran.r390 project.org/web/packages/drc/) with a Four Parameter Logistic Curve (Dose Response Curve) (Ritz and Streibig, 2005).” for “calculated.”
# [4] = tested on: rice seedlings (Shiokari, d3, d10); experiment: Growth and fresh biomass of hydroponically grown rice seedlings; assay type: in vivo; conditions: 2.5 μM, twice a week for three weeks
# Protocol: Rice seeds (WT, d3, d10) were surface-sterilized by washing with 70% ethanol for 1 min and then with 2.5% sodium hypochlorite for 15 min. Seeds were then rinsed thoroughly with sterile MilliQ water and incubated in water for 2 days at 30° C. in the dark. Pre-germinated seeds were transferred to filter papers containing ½ strength MS medium in 90 mm petri dishes and incubated at 30° C. under fluorescent white light (130-180 μM m^−2 s^−1) for one week. Seven day-old seedlings were transferred to 50 ml falcon tubes (one seedling per tube) containing modified half-strength Hoagland nutrient solution and grown in greenhouse. Plants were treated with MPs at 2.5 μM-2.5×10-7 μM, using GR24 as positive control. The compounds were applied six times, twice a week. Number of tillers per plant, plant height and fresh biomass were measured at final harvest.
smiles,measurement,setting,value
"CC1=CC(O/C=C(/C=O)c2ccc([N+](=O)[O-])cc2)OC1=O (racemic) [MP12, (E)-3-(4-methyl-5-oxo-2,5-dihydrofuran-2-yloxy)-2-(4-nitrophenyl)acrylaldehyde]",Inhibition of hypocotyl growth,Arabidopsis seedlings [1],"Apart from MP12 and MP15, all MPs showed significant inhibition"
same,Stability in comparison to GR24,[2],not detectable even after only 24 h
CC1=CC(O/C=C(C)\C=C\C2=C(C)CCCC2(C)C)OC1=O (centres unmarked) [Carlactone],Activity in S. hermonthica seed germination,S. hermonthica,considerable activity
CC1=CC(O/C=C2/C(=O)OCc3ccccc32)OC1=O (centres unmarked) [MP5],Stability in comparison to GR24,[2],more stable than GR24; also recorded: the most stable compound
COC(=O)/C(=C/OC1C=C(C)C(=O)O1)c1cccc(Cl)c1 (centres unmarked) [MP8],Reduction of number of lateral roots / lateral root density,Arabidopsis seedlings [3],slightly more active than GR24
same,Stability in comparison to GR24,[2],very similar to that of GR24
same,P. ramosa seed germination activity,P. ramosa seeds,much higher activity
COC(=O)/C(=C/OC1C=C(C)C(=O)O1)c1ccccc1Cl (centres unmarked) [MP9],Relative activity in inducing S. hermonthica seed germination,S. hermonthica seeds,followed by MP9
same,"Growth, senescence symptoms and biomass of rice seedlings",[4],stunted the growth and caused senescence symptoms
same,Stability in comparison to GR24,[2],very similar to that of GR24
COC(=O)/C(=C/OC1C=C(C)C(=O)O1)c1ccc(OC)cc1 (centres unmarked) [MP14],Stability in comparison to GR24,[2],very similar to that of GR24

# From patent US11903386B2, “Strigolactone analogs and their usage in plant control” (King Abdullah University of Science and Technology, priority 2016, dated 2024)
